Data reported in patent publication US20070088090A1, “Alpha-bulnesene, its preparation and its use” (Yangsen Biotechnology Co., Ltd., priority 2005, published 2007).

What was measured:
[1] = test system: PAF-induced platelet aggregation; experiment: PAF-induced platelet aggregation in rabbit washed platelets; assay type: cell-based; conditions: PAF 5 nM, read-out: IC50, inhibition of platelet aggregation induced by PAF
Procedure: Blood samples were collected from the marginal ear artery of New Zealand white rabbits. The blood was then treated to obtained platelet-rich plasma (PRP) mixed with EDTA. The platelet pellet was obtained from the EDTA-anticoagulated PRP by centrifugation. The pellet was then suspended in Tyrode solution and incubated. Platelet numbers were then counted.
The platelet suspension was stirred with solvent of test compound in solvent of different concentrations. Aggregation inducer PAF was then added to trigger the aggregation. Aggregation was determined by the transmission method using a platelet aggregation chromogenic kinetic system. The initial transmittance of the Ca^2+-containing Tyrode solution was taken as 0% aggregation and that of the platelet suspension as 100% aggregation. […] Percent inhibition by a compound was calculated.
Platelet suspension was prepared as follows. […]
Platelet aggregation was measured turbidimetrically with a light-transmission Platelet Aggregation Chromogenic Kinetic System PACK4 (Helena Laboratories, Beaumont, Tex., USA) with some modifications. […] The absorbance of the Tyrode's solution was taken as 0% aggregation and that of the platelet suspension as 100% aggregation. The extent of platelet aggregation was measured as the maximal increase of light transmission within 4 min after addition of the inducers. […]

PAF receptor = target: T1, PAF receptor (Oryctolagus cuniculus, UniProt G1TEI7); experiment: [3H]PAF receptor binding assay using rabbit washed platelets
T1 construct: from tissue; host or cells: rabbit washed platelets (intact)
T1 sequence (G1TEI7 1-342): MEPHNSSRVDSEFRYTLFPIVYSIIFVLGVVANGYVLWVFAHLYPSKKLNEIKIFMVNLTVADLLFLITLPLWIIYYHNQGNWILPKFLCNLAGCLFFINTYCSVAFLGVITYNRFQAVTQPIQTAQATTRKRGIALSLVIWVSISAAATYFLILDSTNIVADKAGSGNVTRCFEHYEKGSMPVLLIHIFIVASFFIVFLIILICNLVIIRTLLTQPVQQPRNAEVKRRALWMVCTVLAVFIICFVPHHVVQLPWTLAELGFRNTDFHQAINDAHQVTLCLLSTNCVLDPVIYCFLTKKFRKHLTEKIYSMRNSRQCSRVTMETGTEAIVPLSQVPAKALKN
Procedure: [^3H]PAF receptor binding assay is prepared using rabbit washed platelets. […] The reaction mixture was incubated at 4° C. for 2 hrs and then 5 mL of BSA-containing saline solution was added to terminate the reactions. The free and bound ligands were separated by filtration using a Whtman GF/C glass fiber filters which were presoaked with ice-cold water. The filters were rapidly washed with the same solution and then dried and placed into vials containing 10 mL of the scintillation fluid. Radioactivity was measured in a liquid scintillation counter (Beckman LS3801). The difference between the total radioactivity of bound [^3H]PAF in the absence and in the presence of excess unlabeled PAF is defined as specific binding of the radio-labeled ligand. In a batch of experiments, [^3H]PAF was incubated with different concentrations of PAF receptor antagonists, and the effect of the antagonist on the specific binding was expressed as percentage inhibition of the control.
Percent inhibition (%)=[100−(B/A×100)](%)
wherein A represents percent aggregation in control added and B represents percent aggregation in compound added.

[2] = test system: AA-induced platelet aggregation; experiment: AA-induced platelet aggregation in rabbit washed platelets; assay type: cell-based; conditions: AA 100 μM
Procedure: Platelet suspension was prepared as follows. Blood was collected from the marginal ear vein of New Zealand White rabbits. The blood was then anticoagulated with acid citrate dextrose (ACD, 1:6, v/v) and centrifuged for 8 min at 1000×g at room temperature. The upper portion was collected as platelet-rich plasma (PRP) and mixed with EDTA to a final concentration of 5 mM. The platelet pellets were obtained from EDTA-mixed PRP by centrifugation for 12 min at 2000×g. The platelet pellets were suspended with Ca^2+-free Tyrode's solution, and then incubated with apyrase (1 unit mL^−1) for 15 min at 37° C. […] The concentration of platelets was adjusted to 2.5×10^8 platelets mL^−1.
Platelet aggregation was measured turbidimetrically with a light-transmission Platelet Aggregation Chromogenic Kinetic System PACK4 (Helena Laboratories, Beaumont, Tex., USA) with some modifications. […] Aggregation was induced with PAF (5 nM) and AA (100 μM). The absorbance of the Tyrode's solution was taken as 0% aggregation and that of the platelet suspension as 100% aggregation. The extent of platelet aggregation was measured as the maximal increase of light transmission within 4 min after addition of the inducers. When isopropanol was used as the solvent the final concentration was fixed at 0.5% (v/v) to eliminate the effect of the solvent. All glassware was siliconized.

TXB2 formation = experiment: Thromboxane B2 formation induced by AA in rabbit washed platelets (EIA); assay type: cell-based; conditions: AA 100 μM, 6 min
Procedure: (§1) After challenging platelets with AA (100 μM) for 6 min, 1 mM EDTA and 20 μM indomethacin were added to terminate the reaction. By centrifugation for 5 min at 4° C. and 10,000×g, the TXB2 and PGE2 in the supernatants were assayed using EIA kits according to the procedure described by the manufacturer.

PGE2 formation = experiment: Prostaglandin E2 formation induced by AA in rabbit washed platelets (EIA); assay type: cell-based; conditions: AA 100 μM
Procedure: as §1

rabbit platelets = experiment: Cytotoxicity assay in rabbit platelets; assay type: cell-based; conditions: 12.5-50 μM, 30 min treatment, data not shown
[3] = test system: PAF-induced intracellular Ca2+ release; experiment: PAF-induced intracellular Ca2+ release in fluo-3-loaded platelets; assay type: cell-based, rabbit; conditions: PAF 5 nM, 2.5-50 μM, read-out: IC50, inhibition of PAF-induced intracellular Ca2+ release
Procedure: Platelets pelleted from PRP were resuspended in Ca^2+-free Tyrode's solution, and then incubated with fluo-3/AM (2 μM) at 37° C. for 30 min. In order to prevent leakage of dye, probenecid (2.5 mM) was added to the buffers throughout the experiments. After washing, the fluo-3-loaded platelets were finally suspended in Ca^2+-free Tyrode's solution without heparin at a concentration of 1.3×10^8 platelets mL^−1. The fluo-3-loaded platelets were preincubated with α-bulnesene in the presence of extracellular calcium (1 mM) at 37° C. for 2 min prior to addition of PAF. Fluorescence (Ex 505 nm, Em 530 nm) was measured with a fluorescence spectrophotometer (Model F4500; Hitachi, Tokyo, Japan). At the end of the experiment, the cells were treated with digitonin (20%) followed by the addition of EGTA (50 mM) to obtain the maximal and minimal fluorescence, respectively. [Ca^2+]i was calculated as described for fluo-3/AM using the Ca^2+-dye dissociation constant 864 nM.

## CCCCCCCCCCCCCCCCCCNC(=O)OCC(COP(=O)([O-])OCC[n+]1ccsc1)OC (centres unmarked) [CV-3988]
[1]
  IC50: 2.4 ± 1.01 µM
PAF receptor; 10 μM, n=3
  percent inhibition for [3H]PAF binding: 10.10±1.74%
[2]
  inhibition on AA-induced platelet aggregation: no inhibition

## COc1ccc2c(c1)c(CC(=O)O)c(C)n2C(=O)c1ccc(Cl)cc1 [Indomethacin, indomethacin]
TXB2 formation; Oryctolagus cuniculus, Platelet, 0.1 h, 1 μM, read-out: percent inhibition of TXB2 formation
  inhibition at 1 µM: 98.05 ± 0.16%
PGE2 formation; indomethacin, concentration not restated (1 μM as positive control)
  PGE2 formation in the presence of AA: inhibited

## O=C(O)c1cc2cc(Cc3cccnc3)ccc2o1 [furegrelate]
TXB2 formation; Oryctolagus cuniculus, Platelet, 0.1 h, 300 μM, read-out: percent inhibition of TXB2 formation
  inhibition at 300 µM: 96.49 ± 0.78%
PGE2 formation; 300 μM
  PGE2 formation in the presence of AA: reversely enhanced

## C=C(C)C1CCC(C)=C2CCC(C)C2C1 (stereo not drawn) [α-bulnesene, 1β,4-dimethyl-7β-isopropenyl-1,2,3,5,6,7,8,8aα-octahydroazulene]
TXB2 formation; 25-100 μM
  TXB2 formation stimulated by AA: inhibited
[1]
  IC50: 24.5 ± 2.45 µM
Rabbit platelets
  toxicity in rabbit platelets: did not have any toxicity
PAF receptor; 0.2 nM [3H]PAF, 4° C., 2 hrs
  IC50: 17.6 ± 5.68 µM
[3]
  IC50: 19.6 ± 1.32 µM
PGE2 formation; 25-100 μM, 6 min
  PGE2 formation in the presence of AA: inhibited
[2]; read-out: IC50, inhibition of platelet aggregation induced by AA
  IC50: 42.5 ± 5.97 µM
